Measured values taken from ChEMBL document CHEMBL5532684, “Total Synthesis and Antibacterial Activity of Marine Tris-indole Alkaloid Tulongicin A” (2024).
Values after ≈ are worked out from the molar mass of the structure shown.

How the values were obtained:
Type in all cases: functional
[1] = system: Staphylococcus aureus; assay: Antibacterial activity against Staphylococcus aureus ATCC 29213 assessed as inhibition of bacterial growth incubated overnight by CLSI protocol based assay; settings: read-out: MIC100
[2] = system: Staphylococcus aureus; assay: Antibacterial activity against methicillin susceptible Staphylococcus aureus clinical isolate 1 assessed as inhibition of bacterial growth incubated overnight by CLSI protocol based assay; settings: read-out: MIC100
[3] = system: Staphylococcus aureus; assay: Antibacterial activity against methicillin susceptible Staphylococcus aureus clinical isolate 2 assessed as inhibition of bacterial growth incubated overnight by CLSI protocol based assay; settings: read-out: MIC100
[4] = system: Staphylococcus aureus; assay: Antibacterial activity against methicillin susceptible Staphylococcus aureus clinical isolate 3 assessed as inhibition of bacterial growth incubated overnight by CLSI protocol based assay; settings: read-out: MIC100
[5] = system: Staphylococcus aureus; assay: Antibacterial activity against methicillin susceptible Staphylococcus aureus clinical isolate 4 assessed as inhibition of bacterial growth incubated overnight by CLSI protocol based assay; settings: read-out: MIC100
[6] = system: Staphylococcus aureus; assay: Antibacterial activity against methicillin susceptible Staphylococcus aureus clinical isolate 5 assessed as inhibition of bacterial growth incubated overnight by CLSI protocol based assay; settings: read-out: MIC100
[7] = system: Staphylococcus aureus; assay: Antibacterial activity against methicillin resistant Staphylococcus aureus clinical isolate 1 assessed as inhibition of bacterial growth incubated overnight by CLSI protocol based assay; settings: read-out: MIC100
[8] = system: Staphylococcus aureus; assay: Antibacterial activity against methicillin resistant Staphylococcus aureus clinical isolate 2 assessed as inhibition of bacterial growth incubated overnight by CLSI protocol based assay; settings: read-out: MIC100
[9] = system: Staphylococcus aureus; assay: Antibacterial activity against methicillin resistant Staphylococcus aureus clinical isolate 3 assessed as inhibition of bacterial growth incubated overnight by CLSI protocol based assay; settings: read-out: MIC100
[10] = system: Staphylococcus aureus; assay: Antibacterial activity against methicillin resistant Staphylococcus aureus clinical isolate 4 assessed as inhibition of bacterial growth incubated overnight by CLSI protocol based assay; settings: read-out: MIC100
[11] = system: Staphylococcus aureus; assay: Antibacterial activity against methicillin resistant Staphylococcus aureus clinical isolate 5 assessed as inhibition of bacterial growth incubated overnight by CLSI protocol based assay; settings: read-out: MIC100
[12] = system: Escherichia coli; assay: Antibacterial activity against Escherichia coli ATCC 25922 assessed as inhibition of bacterial growth incubated overnight by CLSI protocol based assay; settings: read-out: MIC100
[13] = system: Pseudomonas aeruginosa; assay: Antibacterial activity against Pseudomonas aeruginosa ATCC 27853 assessed as inhibition of bacterial growth incubated overnight by CLSI protocol based assay; settings: read-out: MIC100
[14] = system: Staphylococcus aureus; assay: Bactericidal activity against Staphylococcus aureus ATCC 29213 incubated overnight by CLSI protocol based assay; settings: read-out: MBC>99.9
[15] = system: Staphylococcus aureus; assay: Bactericidal activity against methicillin susceptible Staphylococcus aureus clinical isolate 1 incubated overnight by CLSI protocol based assay; settings: read-out: MBC>99.9
[16] = system: Staphylococcus aureus; assay: Bactericidal activity against methicillin susceptible Staphylococcus aureus clinical isolate 2 incubated overnight by CLSI protocol based assay; settings: read-out: MBC>99.9
[17] = system: Staphylococcus aureus; assay: Bactericidal activity against methicillin susceptible Staphylococcus aureus clinical isolate 3 incubated overnight by CLSI protocol based assay; settings: read-out: MBC>99.9
[18] = system: Staphylococcus aureus; assay: Bactericidal activity against methicillin susceptible Staphylococcus aureus clinical isolate 4 incubated overnight by CLSI protocol based assay; settings: read-out: MBC>99.9
[19] = system: Staphylococcus aureus; assay: Bactericidal activity against methicillin susceptible Staphylococcus aureus clinical isolate 5 incubated overnight by CLSI protocol based assay; settings: read-out: MBC>99.9
[20] = system: Staphylococcus aureus; assay: Bactericidal activity against methicillin resistant Staphylococcus aureus clinical isolate 1 incubated overnight by CLSI protocol based assay; settings: read-out: MBC>99.9
[21] = system: Staphylococcus aureus; assay: Bactericidal activity against methicillin resistant Staphylococcus aureus clinical isolate 2 incubated overnight by CLSI protocol based assay; settings: read-out: MBC>99.9
[22] = system: Staphylococcus aureus; assay: Bactericidal activity against methicillin resistant Staphylococcus aureus clinical isolate 3 incubated overnight by CLSI protocol based assay; settings: read-out: MBC>99.9
[23] = system: Staphylococcus aureus; assay: Bactericidal activity against methicillin resistant Staphylococcus aureus clinical isolate 4 incubated overnight by CLSI protocol based assay; settings: read-out: MBC>99.9
[24] = system: Staphylococcus aureus; assay: Bactericidal activity against methicillin resistant Staphylococcus aureus clinical isolate 5 incubated overnight by CLSI protocol based assay; settings: read-out: MBC>99.9
[25] = system: Escherichia coli; assay: Bactericidal activity against Escherichia coli ATCC 25922 incubated overnight by CLSI protocol based assay; settings: read-out: MBC>99.9
[26] = system: Pseudomonas aeruginosa; assay: Bactericidal activity against Pseudomonas aeruginosa ATCC 27853 incubated overnight by CLSI protocol based assay; settings: read-out: MBC>99.9
[27] = system: Staphylococcus aureus; assay: Antibacterial activity against Staphylococcus aureus assessed as inhibition of bacterial growth

SMILES	MIC [1] [µg/mL]	MIC [2] [µg/mL]	MIC [3] [µg/mL]	MIC [4] [µg/mL]	MIC [5] [µg/mL]	MIC [6] [µg/mL]	MIC [7] [µg/mL]	MIC [8] [µg/mL]	MIC [9] [µg/mL]	MIC [10] [µg/mL]	MIC [11] [µg/mL]	MIC [12] [µg/mL]	MIC [13] [µg/mL]	MBC [14] [µg/mL]	MBC [15] [µg/mL]	MBC [16] [µg/mL]	MBC [17] [µg/mL]	MBC [18] [µg/mL]	MBC [19] [µg/mL]	MBC [20] [µg/mL]	further results
Brc1ccc2c(C(C3=NC[C@H](c4c[nH]c5cc(Br)ccc45)N3)c3c[nH]c4cc(Br)ccc34)c[nH]c2c1	2 (≈ 3 µM)	1 (≈ 1.5 µM)	2 (≈ 3 µM)	2 (≈ 3 µM)	2 (≈ 3 µM)	2 (≈ 3 µM)	2 (≈ 3 µM)	1 (≈ 1.5 µM)	2 (≈ 3 µM)	2 (≈ 3 µM)	1 (≈ 1.5 µM)	16 (≈ 24 µM)	> 128	4 (≈ 6 µM)	16 (≈ 24 µM)	2 (≈ 3 µM)	16 (≈ 24 µM)	128 (≈ 192 µM)	64 (≈ 96.1 µM)	128 (≈ 192 µM)	MBC [21]: 16 µg/mL (≈ 24 µM); MBC [22]: 2 µg/mL (≈ 3 µM); MBC [23]: 16 µg/mL (≈ 24 µM); MBC [24]: 2 µg/mL (≈ 3 µM); MBC [25]: 32 µg/mL (≈ 48 µM); MBC [26]: > 128 µg/mL; MIC [27]: 1 µg/mL (≈ 1.5 µM)
O=C(C1=NC[C@H](c2c[nH]c3cc(Br)ccc23)N1)c1c[nH]c2cc(Br)ccc12 (racemic)	2 (≈ 4.11 µM)	2 (≈ 4.11 µM)	2 (≈ 4.11 µM)	2 (≈ 4.11 µM)	2 (≈ 4.11 µM)	2 (≈ 4.11 µM)	2 (≈ 4.11 µM)	2 (≈ 4.11 µM)	2 (≈ 4.11 µM)	2 (≈ 4.11 µM)	2 (≈ 4.11 µM)	> 128	> 128	8 (≈ 16.5 µM)	32 (≈ 65.8 µM)	> 128	> 128	> 128	128 (≈ 263 µM)	> 128	MBC [21]: 16 µg/mL (≈ 32.9 µM); MBC [22]: 4 µg/mL (≈ 8.23 µM); MBC [24]: 64 µg/mL (≈ 132 µM); MBC [25]: > 128 µg/mL; MBC [26]: > 128 µg/mL
